Test results: publication PMC5025730

How the values were obtained:
[1] = CuAAC macrocyclisation (azide + terminal alkyne to 1,4-triazole); CuI 2 eq, DIPEA 3 eq; conditions: THF, 1.0 mM, 66.0 °C
[2] = RuAAC macrocyclisation (azide + terminal alkyne to 1,5-triazole); [Cp*RuCl]4 0.1 eq (more for 30b, 31b); conditions: the molecule shown is the open-chain precursor, THF, 1.0 mM, 66.0 °C
[3] = CuAAC macrocyclisation (azide + terminal alkyne to 1,4-triazole); CuI 2 eq, DIPEA 3 eq; yield includes preceding coupling step on crude precursor; conditions: the molecule shown is the open-chain precursor, THF, 1.0 mM, 66.0 °C, 2 steps
[4] = RuAAC macrocyclisation (azide + terminal alkyne to 1,5-triazole); [Cp*RuCl]4 0.1 eq (0.2 eq for 28b); yield includes preceding coupling step on crude precursor; conditions: the molecule shown is the open-chain precursor, THF, 1.0 mM, 66.0 °C, 2 steps

CN(C)C(=O)[C@@H]1CCCCn2cc(nn2)CN(CC(=O)OCCC(F)(F)C(F)(F)C(F)(F)C(F)(F)C(F)(F)C(F)(F)C(F)(F)C(F)(F)F)C(=O)c2cccc(c2)NC(=O)N1 [6 -> 24a] showed a ring closure, isolated yield ([1]; from C#CCN(CC(=O)OCCC(F)(F)C(F)(F)C(F)(F)C(F)(F)C(F)(F)C(F)(F)C(F)(F)C(F)(F)F)C(=O)c1cccc(NC(=O)N[C@@H](CCCCN=[N+]=[N-])C(=O)N(C)C)c1, 17-membered ring) of 70%.

Work on C#CCN(CC(=O)OCCC(F)(F)C(F)(F)C(F)(F)C(F)(F)C(F)(F)C(F)(F)C(F)(F)C(F)(F)F)C(=O)c1cccc(NC(=O)N[C@@H](CCCCN=[N+]=[N-])C(=O)N(C)C)c1 [6 -> 24b] yielded a ring closure, isolated yield ([2]; 16-membered ring, 6.0 h) of 33%.

O=C1CCc2cccc(c2)NC(=O)NCCc2ccc(cc2)-n2cc(nn2)CN(CC(=O)OCCC(F)(F)C(F)(F)C(F)(F)C(F)(F)C(F)(F)C(F)(F)C(F)(F)C(F)(F)F)C(=O)c2cccc(c2)N1 [13 -> 26a] gave a ring closure, isolated yield ([1]; from C#CCN(CC(=O)OCCC(F)(F)C(F)(F)C(F)(F)C(F)(F)C(F)(F)C(F)(F)C(F)(F)C(F)(F)F)C(=O)c1cccc(NC(=O)CCc2cccc(NC(=O)NCCc3ccc(N=[N+]=[N-])cc3)c2)c1, 25-membered ring, 36.0 h) of 60%.

C#CCN(CC(=O)OCCC(F)(F)C(F)(F)C(F)(F)C(F)(F)C(F)(F)C(F)(F)C(F)(F)C(F)(F)F)C(=O)c1cccc(NC(=O)CCc2cccc(NC(=O)NCCc3ccc(N=[N+]=[N-])cc3)c2)c1 [13 -> 26b] gave a ring closure, isolated yield ([2]; 24-membered ring, 5.0 h) of 54%.

For C#CCN(CC(=O)OCCC(F)(F)C(F)(F)C(F)(F)C(F)(F)C(F)(F)C(F)(F)C(F)(F)C(F)(F)F)C(=O)c1cccc(NC(=O)CCc2cccc(NC(=O)NCCc3ccc(NC(=O)N[C@@H](CCCCN=[N+]=[N-])C(=O)N(C)C)cc3)c2)c1 [14 -> 27a (over two steps from 13)], the ring closure, yield over several steps ([3]; 33-membered ring, 24.0 h) was 31%.

Compound C#CCN(CC(=O)OCCC(F)(F)C(F)(F)C(F)(F)C(F)(F)C(F)(F)C(F)(F)C(F)(F)C(F)(F)F)C(=O)c1cccc(NC(=O)CCc2cccc(NC(=O)NCCc3ccc(NC(=O)N[C@@H](CCCCN=[N+]=[N-])C(=O)N(C)C)cc3)c2)c1 [14 -> 27b (over two steps from 13)] has a ring closure, yield over several steps ([4]; 32-membered ring, 24.0 h) of 12%.

Work on C#CCN(CC(=O)OCCC(F)(F)C(F)(F)C(F)(F)C(F)(F)C(F)(F)C(F)(F)C(F)(F)C(F)(F)F)C(=O)c1cccc(N(C(=O)CCCCCCCN=[N+]=[N-])C(C(=O)NC2CCCCC2)c2ccccc2)c1 (stereo not shown) [17a -> 28a (over two steps from 2)] yielded a ring closure, yield over several steps ([3]; 18-membered ring) of 18%.

For C#CCN(CC(=O)OCCC(F)(F)C(F)(F)C(F)(F)C(F)(F)C(F)(F)C(F)(F)C(F)(F)C(F)(F)F)C(=O)c1cccc(N(C(=O)CCCCCCCN=[N+]=[N-])C(C(=O)NC2CCCCC2)c2ccccc2)c1 (stereo not shown) [17a -> 28b (over two steps from 2)], the ring closure, yield over several steps ([4]; 17-membered ring, 48.0 h) was 47%.

For C#CCN(CC(=O)OCCC(F)(F)C(F)(F)C(F)(F)C(F)(F)C(F)(F)C(F)(F)C(F)(F)C(F)(F)F)C(=O)c1cccc(N(C(=O)CCCCCCCN=[N+]=[N-])C(C(=O)NC2CCCCC2)c2ccc(Br)cc2)c1 (stereo not shown) [17b -> 29a (over two steps from 2)], the ring closure, yield over several steps ([3]; 18-membered ring) was 24%.

In the case of C#CCN(CC(=O)OCCC(F)(F)C(F)(F)C(F)(F)C(F)(F)C(F)(F)C(F)(F)C(F)(F)C(F)(F)F)C(=O)c1cccc(N(C(=O)CCCCCCCN=[N+]=[N-])C(C(=O)NC2CCCCC2)c2ccc(Br)cc2)c1 (stereo not shown) [17b -> 29b (over two steps from 2)], the ring closure, yield over several steps ([4]; 17-membered ring) is reported as 78%.

For CO[C@H]1C(=O)N2c3cccc(c3)C(=O)N(CC(=O)OCCC(F)(F)C(F)(F)C(F)(F)C(F)(F)C(F)(F)C(F)(F)C(F)(F)C(F)(F)F)Cc3cn(nn3)CCCCc3cccc(c3)[C@@H]12 [18a -> 30a (cis beta-lactam)], the ring closure, isolated yield ([1]; from C#CCN(CC(=O)OCCC(F)(F)C(F)(F)C(F)(F)C(F)(F)C(F)(F)C(F)(F)C(F)(F)C(F)(F)F)C(=O)c1cccc(N2C(=O)[C@H](OC)[C@@H]2c2cccc(CCCCN=[N+]=[N-])c2)c1, 18-membered ring, 24.0 h) was 61%.

For C#CCN(CC(=O)OCCC(F)(F)C(F)(F)C(F)(F)C(F)(F)C(F)(F)C(F)(F)C(F)(F)C(F)(F)F)C(=O)c1cccc(N2C(=O)[C@H](OC)[C@@H]2c2cccc(CCCCN=[N+]=[N-])c2)c1 [18a -> 30b (cis beta-lactam)], the ring closure, isolated yield ([2]; 17-membered ring, 48.0 h) was 33%.

CO[C@H]1C(=O)N2c3cccc(c3)C(=O)N(CC(=O)OCCC(F)(F)C(F)(F)C(F)(F)C(F)(F)C(F)(F)C(F)(F)C(F)(F)C(F)(F)F)Cc3cn(nn3)CCCCc3cccc(c3)[C@H]12 [18b -> 31a (trans beta-lactam)] showed a ring closure, isolated yield ([1]; from C#CCN(CC(=O)OCCC(F)(F)C(F)(F)C(F)(F)C(F)(F)C(F)(F)C(F)(F)C(F)(F)C(F)(F)F)C(=O)c1cccc(N2C(=O)[C@H](OC)[C@H]2c2cccc(CCCCN=[N+]=[N-])c2)c1, 18-membered ring, 24.0 h) of 91%.

C#CCN(CC(=O)OCCC(F)(F)C(F)(F)C(F)(F)C(F)(F)C(F)(F)C(F)(F)C(F)(F)C(F)(F)F)C(=O)c1cccc(N2C(=O)[C@H](OC)[C@H]2c2cccc(CCCCN=[N+]=[N-])c2)c1 [18b -> 31b (trans beta-lactam)] showed a ring closure, isolated yield ([2]; 17-membered ring, 96.0 h) of 7%.

O=C1C=CN2c3cccc(c3)C(=O)N(CC(=O)OCCC(F)(F)C(F)(F)C(F)(F)C(F)(F)C(F)(F)C(F)(F)C(F)(F)C(F)(F)F)Cc3cn(nn3)CCCCc3cccc(c3)C2C1 (stereo not shown) [19 -> 32a] gave a ring closure, isolated yield ([1]; from C#CCN(CC(=O)OCCC(F)(F)C(F)(F)C(F)(F)C(F)(F)C(F)(F)C(F)(F)C(F)(F)C(F)(F)F)C(=O)c1cccc(N2C=CC(=O)CC2c2cccc(CCCCN=[N+]=[N-])c2)c1, 18-membered ring, 20.0 h) of 33%.

Work on C#CCN(CC(=O)OCCC(F)(F)C(F)(F)C(F)(F)C(F)(F)C(F)(F)C(F)(F)C(F)(F)C(F)(F)F)C(=O)c1cccc(N2C=CC(=O)CC2c2cccc(CCCCN=[N+]=[N-])c2)c1 (stereo not shown) [19 -> 32b] yielded a ring closure, isolated yield ([2]; 17-membered ring, 48.0 h) of 19%.

For O=C(CN1Cc2cn(nn2)CCCCc2cccc(c2)[C@H]2[C@@H]3CC[C@H](CC3=O)N2c2cccc(c2)C1=O)OCCC(F)(F)C(F)(F)C(F)(F)C(F)(F)C(F)(F)C(F)(F)C(F)(F)C(F)(F)F [20 -> 33 (exo azabicyclooctanone)], the ring closure, isolated yield ([1]; from C#CCN(CC(=O)OCCC(F)(F)C(F)(F)C(F)(F)C(F)(F)C(F)(F)C(F)(F)C(F)(F)C(F)(F)F)C(=O)c1cccc(N2[C@@H]3CC[C@H](C(=O)C3)[C@@H]2c2cccc(CCCCN=[N+]=[N-])c2)c1, 18-membered ring) was 65%.

In the case of O=C(CN1Cc2cn(nn2)CCCCc2cccc(c2)[C@H]2Nc3cc(ccc3[C@H]3OCCC[C@@H]23)C1=O)OCCC(F)(F)C(F)(F)C(F)(F)C(F)(F)C(F)(F)C(F)(F)C(F)(F)C(F)(F)F [21a -> 25a (calculated 0.012/0.021 mmol)], the ring closure, isolated yield ([1]; from C#CCN(CC(=O)OCCC(F)(F)C(F)(F)C(F)(F)C(F)(F)C(F)(F)C(F)(F)C(F)(F)C(F)(F)F)C(=O)c1ccc2c(c1)N[C@H](c1cccc(CCCCN=[N+]=[N-])c1)[C@@H]1CCCO[C@H]21, 18-membered ring) is reported as 57%.

Compound C#CCN(CC(=O)OCCC(F)(F)C(F)(F)C(F)(F)C(F)(F)C(F)(F)C(F)(F)C(F)(F)C(F)(F)F)C(=O)c1ccc2c(c1)N[C@H](c1cccc(CCCCN=[N+]=[N-])c1)[C@H]1CCCO[C@@H]21 [21b -> 25b (from 21b/21c mixture, over two steps from 2)] has a ring closure, yield over several steps ([3]; 18-membered ring) of 4%.

In the case of C#CCN(CC(=O)OCCC(F)(F)C(F)(F)C(F)(F)C(F)(F)C(F)(F)C(F)(F)C(F)(F)C(F)(F)F)C(=O)c1cccc2c1[C@@H]1OCCC[C@@H]1[C@H](c1cccc(CCCCN=[N+]=[N-])c1)N2 [21c -> 25c (from 21b/21c mixture, over two steps from 2)], the ring closure, yield over several steps ([3]; 18-membered ring) is reported as 7%.

With O=C(CN1Cc2cn(nn2)CCCCc2cccc(c2)[C@@H]2Nc3cccc(c3[C@H]3OCCC[C@H]32)C1=O)OCCC(F)(F)C(F)(F)C(F)(F)C(F)(F)C(F)(F)C(F)(F)C(F)(F)C(F)(F)F [21d -> 25d (calculated 0.011/0.017 mmol)] the ring closure, isolated yield ([1]; from C#CCN(CC(=O)OCCC(F)(F)C(F)(F)C(F)(F)C(F)(F)C(F)(F)C(F)(F)C(F)(F)C(F)(F)F)C(=O)c1cccc2c1[C@H]1OCCC[C@H]1[C@H](c1cccc(CCCCN=[N+]=[N-])c1)N2, 18-membered ring) was 65%.

In the case of C#CCN(CC(=O)OCCC(F)(F)C(F)(F)C(F)(F)C(F)(F)C(F)(F)C(F)(F)C(F)(F)C(F)(F)F)C(=O)c1cccc(NC(C#N)c2cccc(CCCCN=[N+]=[N-])c2)c1 (stereo not shown) [22 -> 34 (over two steps from 2)], the ring closure, yield over several steps ([3]; 18-membered ring) is reported as 71%.
